Tested on: 439559-082-T-J2-PDC spheroids viability
Assay: Anticancer human tumor 439559-082-T-J2-PDC patient-derived colon adenocarcinoma cell line growth inhibition [GQUAD]
Conditions: for IC50: curve of first compound; for viability, T/C: stronger effect = lower value; active means viability on the fitted dose curve at most 10% of control; inactive means the rest
Procedure, shortened: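 Multi-cell-type spheroids of tumor cells with HUVEC and mesenchymal stem cells, treated with drug combinations. Concentrations descend in half-log steps from near clinical Cmax, or from 10 microM where Cmax is unknown; viability read-out.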

[1] = second compound 0.0316 µM, first compound 0.0316 µM
[2] = second compound 0.0316 µM, first compound 0.1 µM
[3] = second compound 0.0316 µM, first compound 0.316 µM
[4] = second compound 0.0316 µM, first compound 1 µM
[5] = second compound 0.0316 µM, first compound 3.16 µM
[6] = second compound 0.0316 µM, first compound 10 µM
[7] = second compound 0.1 µM, first compound 0.0316 µM
[8] = second compound 0.1 µM, first compound 0.1 µM
[9] = second compound 0.1 µM, first compound 0.316 µM
[10] = second compound 0.1 µM, first compound 1 µM
[11] = second compound 0.1 µM, first compound 3.16 µM
[12] = second compound 0.1 µM, first compound 10 µM
[13] = second compound 0.316 µM, first compound 0.0316 µM
[14] = second compound 0.316 µM, first compound 0.1 µM
[15] = second compound 0.316 µM, first compound 0.316 µM
[16] = second compound 0.316 µM, first compound 1 µM
[17] = second compound 0.316 µM, first compound 3.16 µM
[18] = second compound 0.316 µM, first compound 10 µM
[19] = second compound 1 µM, first compound 0.0316 µM
[20] = second compound 1 µM, first compound 0.1 µM
[21] = second compound 1 µM, first compound 0.316 µM
[22] = second compound 1 µM, first compound 1 µM
[23] = second compound 1 µM, first compound 3.16 µM
[24] = second compound 1 µM, first compound 10 µM
[25] = second compound 3.16 µM, first compound 0.0316 µM
[26] = second compound 3.16 µM, first compound 0.1 µM
[27] = second compound 3.16 µM, first compound 0.316 µM
[28] = second compound 3.16 µM, first compound 1 µM
[29] = second compound 3.16 µM, first compound 3.16 µM
[30] = second compound 3.16 µM, first compound 10 µM
[31] = second compound 10 µM, first compound 0.0316 µM
[32] = second compound 10 µM, first compound 0.1 µM
[33] = second compound 10 µM, first compound 0.316 µM
[34] = second compound 10 µM, first compound 1 µM
[35] = second compound 10 µM, first compound 3.16 µM
[36] = second compound 10 µM, first compound 10 µM
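Further: spheroids exposed to the agents for 7 days before readout.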
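Wherever viability, T/C is given: percent of luminescence signal in DMSO vehicle wells taken as 100% viability.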

COc1ccc([C@@H](O)c2cc(-c3ncnc4cc(N5CCOCC5)ccc34)c(F)cc2Cl)nn1 + Cc1cnc(CNC(=O)c2c(=O)c3ccc(N4CCCN(C)CC4)nc3n3c2sc2ccccc23)cn1
> 10 µM: IC50 (second compound 0.0316 µM) | IC50 (second compound 0.1 µM) | IC50 (second compound 0.316 µM)
4.19 µM: IC50 (second compound 3.16 µM)
6.35 µM: IC50 (second compound 1 µM)
inactive: viability, T/C [1] 99.2% | viability, T/C [2] 95.8% | viability, T/C [3] 93.6% | viability, T/C [4] 89.9% | viability, T/C [5] 75.8% | viability, T/C [6] 59.8% | viability, T/C [7] 91.4% | viability, T/C [8] 84% | viability, T/C [9] 87.3% | viability, T/C [10] 71.2% | viability, T/C [11] 70.4% | viability, T/C [12] 59% | viability, T/C [13] 89.4% | viability, T/C [14] 79.1% | viability, T/C [15] 75.4% | viability, T/C [16] 68.9% | viability, T/C [17] 66.6% | viability, T/C [18] 50.3% | viability, T/C [19] 80.1% | viability, T/C [20] 66.6% | viability, T/C [21] 74.4% | viability, T/C [22] 64.8% | viability, T/C [23] 63.1% | viability, T/C [24] 42.7% | viability, T/C [25] 72% | viability, T/C [26] 62.7% | viability, T/C [27] 61.8% | viability, T/C [28] 59.3% | viability, T/C [29] 53.5% | viability, T/C [30] 43.2% | viability, T/C [31] 56.9% | viability, T/C [32] 65.4% | viability, T/C [33] 66.3% | viability, T/C [34] 52.3% | viability, T/C [35] 62.1% | viability, T/C [36] 41%
9.8 µM: IC50 (second compound 10 µM)

Cn1ncnc1[C@H]1c2n[nH]c(=O)c3cc(F)cc(c23)N[C@@H]1c1ccc(F)cc1 + Cc1cnc(CNC(=O)c2c(=O)c3ccc(N4CCCN(C)CC4)nc3n3c2sc2ccccc23)cn1
> 0.316 µM: IC50 (second compound 0.0316 µM) | IC50 (second compound 0.1 µM) | IC50 (second compound 0.316 µM) | IC50 (second compound 1 µM) | IC50 (second compound 3.16 µM) | IC50 (second compound 10 µM)
inactive: viability, T/C (second compound 0.0316 µM, first compound 0.000999 µM) 96.2% | viability, T/C (second compound 0.0316 µM, first compound 0.00316 µM) 92% | viability, T/C (second compound 0.0316 µM, first compound 0.00999 µM) 102% | viability, T/C [1] 99.7% | viability, T/C (second compound 0.0316 µM, first compound 0.0999 µM) 103% | viability, T/C [3] 94.8% | viability, T/C (second compound 0.1 µM, first compound 0.000999 µM) 109% | viability, T/C (second compound 0.1 µM, first compound 0.00316 µM) 84.8% | viability, T/C (second compound 0.1 µM, first compound 0.00999 µM) 95.8% | viability, T/C [7] 88% | viability, T/C (second compound 0.1 µM, first compound 0.0999 µM) 87.3% | viability, T/C [9] 79.6% | viability, T/C (second compound 0.316 µM, first compound 0.000999 µM) 93.8% | viability, T/C (second compound 0.316 µM, first compound 0.00316 µM) 85.5% | viability, T/C (second compound 0.316 µM, first compound 0.00999 µM) 93% | viability, T/C [13] 82.6% | viability, T/C (second compound 0.316 µM, first compound 0.0999 µM) 88.6% | viability, T/C [15] 74.4% | viability, T/C (second compound 1 µM, first compound 0.000999 µM) 72.2% | viability, T/C (second compound 1 µM, first compound 0.00316 µM) 81.5% | viability, T/C (second compound 1 µM, first compound 0.00999 µM) 74.3% | viability, T/C [19] 76% | viability, T/C (second compound 1 µM, first compound 0.0999 µM) 81.6% | viability, T/C [21] 64.8% | viability, T/C (second compound 3.16 µM, first compound 0.000999 µM) 72.1% | viability, T/C (second compound 3.16 µM, first compound 0.00316 µM) 70.8% | viability, T/C (second compound 3.16 µM, first compound 0.00999 µM) 76.5% | viability, T/C [25] 71% | viability, T/C (second compound 3.16 µM, first compound 0.0999 µM) 73.8% | viability, T/C [27] 67.8% | viability, T/C (second compound 10 µM, first compound 0.000999 µM) 65% | viability, T/C (second compound 10 µM, first compound 0.00316 µM) 65% | viability, T/C (second compound 10 µM, first compound 0.00999 µM) 67.4% | viability, T/C [31] 63.5% | viability, T/C (second compound 10 µM, first compound 0.0999 µM) 70.9% | viability, T/C [33] 63.9%

O=C(c1cc(Cc2n[nH]c(=O)c3ccccc23)ccc1F)N1CCN(C(=O)C2CC2)CC1 + Cc1cnc(CNC(=O)c2c(=O)c3ccc(N4CCCN(C)CC4)nc3n3c2sc2ccccc23)cn1
inactive: viability, T/C [1] 94% | viability, T/C [2] 99.1% | viability, T/C [3] 97.3% | viability, T/C [4] 94% | viability, T/C [5] 96.8% | viability, T/C [6] 98.2% | viability, T/C [7] 97% | viability, T/C [8] 87.7% | viability, T/C [9] 88.4% | viability, T/C [10] 89.5% | viability, T/C [11] 101% | viability, T/C [12] 91.9% | viability, T/C [13] 90.6% | viability, T/C [14] 93.2% | viability, T/C [15] 84.1% | viability, T/C [16] 85.5% | viability, T/C [17] 85.7% | viability, T/C [18] 78.8% | viability, T/C [19] 82.8% | viability, T/C [20] 75% | viability, T/C [21] 72.5% | viability, T/C [22] 73.1% | viability, T/C [23] 89.7% | viability, T/C [24] 81.7% | viability, T/C [25] 75.5% | viability, T/C [26] 62.9% | viability, T/C [27] 68.8% | viability, T/C [28] 73.8% | viability, T/C [29] 74.9% | viability, T/C [30] 68.5% | viability, T/C [31] 68.3% | viability, T/C [32] 71.4% | viability, T/C [33] 69% | viability, T/C [34] 68.8% | viability, T/C [35] 71.9% | viability, T/C [36] 61.8%
> 10 µM: IC50 (second compound 0.0316 µM) | IC50 (second compound 0.1 µM) | IC50 (second compound 0.316 µM) | IC50 (second compound 1 µM) | IC50 (second compound 3.16 µM) | IC50 (second compound 10 µM)

Reference: PubChem BioAssay AID2060510 (Molecular Pharmacology Branch, DTP, NCI, 2025)
